Experimental data taken from ChEMBL document CHEMBL1909046, “DrugMatrix in vitro pharmacology data”.

Assays:
[1] = target: Platelet-activating factor receptor (Homo sapiens, UniProt P25105); experiment: biochemical; format: tissue-based; details: platelet; note: in other assays of this panel Not Active means under 50% inhibition at 10 µM
[2] = DRUGMATRIX: Serotonin (5-Hydroxytryptamine) 5-HT3 radioligand binding (ligand: [3H] GR-65630); format: cell membranes, Membrane; details: hek293; Not Active = under 50% inhibition at 10 µM
Glycine receptor = Glycine receptor (Rattus norvegicus, UniProt P22771+P24524+P07727+P20781); format: cell membranes, Wistar, Spinal cord, Membrane; note: in other assays of this panel Not Active means under 50% inhibition at 10 µM
[3] = target: T1, C-C chemokine receptor type 4 (Homo sapiens, UniProt P51679); format: cell membranes, Membrane; details: chem-1; note: in other assays of this panel Not Active means under 50% inhibition at 10 µM
T1 sequence (P51679 whole entry): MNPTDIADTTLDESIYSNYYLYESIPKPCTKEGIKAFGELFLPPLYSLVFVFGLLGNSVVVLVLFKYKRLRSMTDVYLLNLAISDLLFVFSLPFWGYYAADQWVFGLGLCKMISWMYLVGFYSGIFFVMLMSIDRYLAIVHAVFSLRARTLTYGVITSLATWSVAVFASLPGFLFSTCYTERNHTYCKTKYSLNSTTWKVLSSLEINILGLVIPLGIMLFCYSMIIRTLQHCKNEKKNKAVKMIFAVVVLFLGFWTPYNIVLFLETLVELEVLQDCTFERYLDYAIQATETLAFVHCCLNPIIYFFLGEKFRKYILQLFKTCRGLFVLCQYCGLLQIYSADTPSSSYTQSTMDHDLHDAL

[4] = target: Mitogen-activated protein kinase 1 (Homo sapiens, UniProt P28482); experiment: DRUGMATRIX: Protein Serine/Threonine Kinase, ERK2 enzyme inhibition (substrate: Myelin Basic Protein); parameters: species or system Escherichia coli; details: Not Active = under 50% inhibition at 10 µM
Chain of Mitogen-activated protein kinase 1 (P28482 whole entry): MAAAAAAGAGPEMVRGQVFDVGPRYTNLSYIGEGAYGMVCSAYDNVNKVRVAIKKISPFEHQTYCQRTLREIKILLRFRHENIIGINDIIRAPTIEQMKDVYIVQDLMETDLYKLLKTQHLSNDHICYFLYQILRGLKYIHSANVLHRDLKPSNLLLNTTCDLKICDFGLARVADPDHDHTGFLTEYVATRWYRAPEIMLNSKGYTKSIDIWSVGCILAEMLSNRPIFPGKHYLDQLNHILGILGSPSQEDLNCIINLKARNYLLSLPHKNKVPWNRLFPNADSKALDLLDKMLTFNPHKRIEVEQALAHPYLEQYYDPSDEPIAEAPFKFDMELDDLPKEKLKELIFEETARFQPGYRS

Nitric oxide synthase 1 = Nitric oxide synthase 1 (Rattus norvegicus, UniProt P29476); format: tissue-based, Cerebellum; note: in other assays of this panel Not Active means under 50% inhibition at 10 µM
Chain of Nitric oxide synthase 1 (P29476 whole entry): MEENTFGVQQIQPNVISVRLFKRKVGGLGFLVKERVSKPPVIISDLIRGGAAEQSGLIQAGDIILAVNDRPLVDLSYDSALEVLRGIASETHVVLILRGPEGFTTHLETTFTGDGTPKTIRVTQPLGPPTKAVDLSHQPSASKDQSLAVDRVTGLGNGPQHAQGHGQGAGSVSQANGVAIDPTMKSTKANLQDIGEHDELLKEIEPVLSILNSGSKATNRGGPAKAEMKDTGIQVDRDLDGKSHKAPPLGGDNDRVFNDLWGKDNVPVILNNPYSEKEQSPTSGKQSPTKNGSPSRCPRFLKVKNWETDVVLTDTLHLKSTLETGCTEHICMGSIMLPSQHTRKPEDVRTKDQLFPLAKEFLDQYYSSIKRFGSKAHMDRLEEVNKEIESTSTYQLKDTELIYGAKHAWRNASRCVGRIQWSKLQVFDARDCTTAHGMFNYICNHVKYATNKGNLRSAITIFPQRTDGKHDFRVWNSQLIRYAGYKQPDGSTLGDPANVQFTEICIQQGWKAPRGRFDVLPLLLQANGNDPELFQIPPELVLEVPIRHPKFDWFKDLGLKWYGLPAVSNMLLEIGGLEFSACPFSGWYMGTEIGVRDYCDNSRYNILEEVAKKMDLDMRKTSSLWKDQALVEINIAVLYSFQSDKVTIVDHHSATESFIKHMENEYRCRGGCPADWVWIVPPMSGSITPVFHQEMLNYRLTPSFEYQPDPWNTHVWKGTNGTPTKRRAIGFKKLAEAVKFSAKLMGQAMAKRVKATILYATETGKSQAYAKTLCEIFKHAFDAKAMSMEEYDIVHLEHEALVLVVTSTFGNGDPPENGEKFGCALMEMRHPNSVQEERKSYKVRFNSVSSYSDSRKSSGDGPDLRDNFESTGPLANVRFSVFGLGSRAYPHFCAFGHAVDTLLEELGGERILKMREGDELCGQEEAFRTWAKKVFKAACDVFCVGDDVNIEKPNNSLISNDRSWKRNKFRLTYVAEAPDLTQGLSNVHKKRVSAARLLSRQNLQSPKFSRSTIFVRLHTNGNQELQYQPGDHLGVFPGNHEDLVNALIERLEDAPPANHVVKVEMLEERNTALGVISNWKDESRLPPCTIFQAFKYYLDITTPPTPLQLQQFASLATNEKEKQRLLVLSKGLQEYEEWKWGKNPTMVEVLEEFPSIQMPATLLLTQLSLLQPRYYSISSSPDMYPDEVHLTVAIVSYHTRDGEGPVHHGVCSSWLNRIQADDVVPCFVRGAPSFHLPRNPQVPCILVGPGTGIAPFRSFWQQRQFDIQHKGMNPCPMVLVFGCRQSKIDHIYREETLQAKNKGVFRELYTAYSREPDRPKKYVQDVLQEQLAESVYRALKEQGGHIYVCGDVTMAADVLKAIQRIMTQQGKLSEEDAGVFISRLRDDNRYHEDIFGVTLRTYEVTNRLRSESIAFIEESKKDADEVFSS

[5] = target: Kappa-type opioid receptor (Homo sapiens, UniProt P41145); experiment: DRUGMATRIX: Opiate kappa (OP2, KOP) radioligand binding (ligand: [3H] Diprenorphine); format: cell membranes, HEK293, Membrane; details: hek293; Not Active = under 50% inhibition at 10 µM
Chain of Kappa-type opioid receptor (P41145 whole entry): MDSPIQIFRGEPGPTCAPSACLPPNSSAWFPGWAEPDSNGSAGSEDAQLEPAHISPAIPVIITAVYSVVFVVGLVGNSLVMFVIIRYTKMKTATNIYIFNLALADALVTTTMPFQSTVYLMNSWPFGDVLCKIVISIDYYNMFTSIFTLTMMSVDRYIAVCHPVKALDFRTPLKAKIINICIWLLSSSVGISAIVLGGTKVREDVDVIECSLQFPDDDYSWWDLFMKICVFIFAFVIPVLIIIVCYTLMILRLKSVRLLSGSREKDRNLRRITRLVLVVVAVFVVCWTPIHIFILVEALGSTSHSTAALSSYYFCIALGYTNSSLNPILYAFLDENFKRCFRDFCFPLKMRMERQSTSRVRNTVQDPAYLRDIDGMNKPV

Chain of Platelet-activating factor receptor (P25105 whole entry): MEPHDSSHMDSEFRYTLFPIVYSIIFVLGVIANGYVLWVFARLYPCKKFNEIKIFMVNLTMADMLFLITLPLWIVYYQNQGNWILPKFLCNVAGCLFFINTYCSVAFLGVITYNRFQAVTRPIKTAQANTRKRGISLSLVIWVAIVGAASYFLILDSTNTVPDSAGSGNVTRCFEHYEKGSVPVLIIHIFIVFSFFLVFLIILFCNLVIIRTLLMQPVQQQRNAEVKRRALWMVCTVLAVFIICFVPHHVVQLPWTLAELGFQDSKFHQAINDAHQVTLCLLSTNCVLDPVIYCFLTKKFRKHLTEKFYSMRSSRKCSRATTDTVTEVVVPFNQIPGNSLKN

Clc1cc2c(cc1Cl)Oc1cc(Cl)c(Cl)cc1O2 [2,3,7,8-TETRACHLORODIBENZO-P-DIOXIN]
Not Active: IC50 [1] | IC50 [2] | Ki [2] | IC50 (Glycine receptor) | IC50 [3] | IC50 [4] | IC50 (Nitric oxide synthase 1)

CC(C)C[C@H]1C(=O)N2CCC[C@H]2[C@]2(O)O[C@](NC(=O)[C@@H]3C=C4c5cccc6[nH]c(Br)c(c56)C[C@H]4N(C)C3)(C(C)C)C(=O)N12 [BROMOCRIPTINE]
Not Active: IC50 [1] | IC50 [2] | Ki [2] | IC50 (Glycine receptor) | IC50 [3] | IC50 [4] | IC50 (Nitric oxide synthase 1)

Nc1nc(N)nc(NC2CC2)n1 [CYROMAZINE]
Not Active: IC50 [1] | IC50 [2] | Ki [2] | IC50 (Glycine receptor) | IC50 [3] | IC50 [4] | IC50 (Nitric oxide synthase 1)

CN1C[C@H](C(=O)N[C@]2(C)O[C@@]3(O)[C@@H]4CCCN4C(=O)[C@H](Cc4ccccc4)N3C2=O)C[C@@H]2c3cccc4[nH]cc(c34)C[C@H]21 [DIHYDROERGOTAMINE]
Not Active: IC50 [1] | IC50 [2] | Ki [2] | IC50 (Glycine receptor) | IC50 [3] | IC50 [4] | IC50 (Nitric oxide synthase 1)

Cc1c(N(C)CS(=O)(=O)[O-])c(=O)n(-c2ccccc2)n1C.[Na+] [DIPYRONE SODIUM]
Not Active: IC50 [1] | IC50 [2] | Ki [2] | IC50 (Glycine receptor) | IC50 [5] | IC50 [3] | IC50 (Nitric oxide synthase 1)

COc1ccc(Cc2nccc3cc(OC)c(OC)cc23)cc1OC [PAPAVERINE]
Not Active: IC50 [1] | IC50 [2] | Ki [2] | IC50 (Glycine receptor) | IC50 [3] | IC50 [4] | IC50 (Nitric oxide synthase 1)

COBALT(II) ACETYLACETONATE
Not Active: IC50 [1] | Ki [1] | IC50 [2] | Ki [2] | IC50 (Glycine receptor) | Ki (Glycine receptor) | IC50 [3] | Ki [3] | IC50 [4] | Ki [4] | IC50 (Nitric oxide synthase 1) | Ki (Nitric oxide synthase 1)

INSULIN HUMAN
Not Active: IC50 [1] | Ki [1] | IC50 [2] | Ki [2] | IC50 (Glycine receptor) | Ki (Glycine receptor) | IC50 [3] | Ki [3] | IC50 [4] | Ki [4] | IC50 (Nitric oxide synthase 1) | Ki (Nitric oxide synthase 1)

POLYVINYL ALCOHOL
Not Active: IC50 [1] | Ki [1] | IC50 [2] | Ki [2] | IC50 (Glycine receptor) | Ki (Glycine receptor) | IC50 [3] | Ki [3] | IC50 [4] | Ki [4] | IC50 (Nitric oxide synthase 1) | Ki (Nitric oxide synthase 1)
